Measurements reported in patent US9815836B2, “Macrocyclic compounds as IRAK1/4 inhibitors and uses thereof” (Merck Patent GmbH, priority 2015, dated 2017).
Read-outs that look alike come from different tables or passages of the source.

Legend:
[1] = molecular target: IRAK4 (Homo sapiens (Human), UniProt Q9NWZ3); experiment: IRAK4 enzymatic assay (ADP-Glo luminescence); format: biochemical; conditions: human purified recombinant His-TEV-IRAK4 (1-460), ATP 2 μM, STK1-biotin peptide 300 nM
Description: IRAK4 is a human purified recombinant enzyme (His-TEV-IRAK4 (1-460)).
In this assay, IRAK4 hydrolyses ATP, autophosphorylates and phosphorylates a Serine/Threonine generic peptidic substrate (STK: 61ST1BLC from CisBio International). Measurement of IRAK-4 inhibition is performed in 384-well format based on a luminescence assay (ADP-Glo™ Kinase Assay from Promega). Purified human recombinant IRAK4 (0.3 μg/ml) and serial diluted compounds in DMSO (range of concentration from 10 μM to 0.5 nM) or controls (1% DMSO) are incubated for 15 minutes at RT in assay buffer containing 50 mM Hepes pH 7.0, Fatty acid-free BSA 0.1%, Dithiothreitol (DTT) 2 mM, MgCl2 10 mM, EGTA 0.5 mM, Triton X-100 0.01%, MnCl2 5 mM. The kinase reaction is then initiated by the addition of ATP (2 μM) and the peptidic substrate STK1-biotin peptide (300 nM). After 2 hours of incubation at RT, the reaction is stopped and the unconsumed ATP depleted by the addition of ADP-Glo™ Reagent according to supplier instructions. After 40 minutes of incubation at RT, the Kinase Detection Reagent is then added to the assay plate according to supplier instructions. After 20 minutes of incubation at RT, the luminescence signal is measured with a plate-reading luminometer (PerkinElmer Envision or equivalent reader).

[2] = molecular target: IRAK1 (Homo sapiens (Human), UniProt P51617); experiment: IRAK1 enzymatic assay (ADP-Glo luminescence); format: biochemical
Description: In this assay, IRAK1 hydrolyses ATP and autophosphorylates. Measurement of IRAK-1 inhibition is performed in 384-well format based on luminescence assay (ADP-Glo™ Kinase Assay from Promega). Purified human recombinant IRAK1 ([…]) and serial diluted compounds in DMSO (range of concentration from 10 μM to 0.5 nM) or controls (1% DMSO) are incubated for 15 minutes at RT in assay buffer containing 50 mM Hepes pH 7.0, Fatty acid-free BSA 0.1%, Dithiothreitol (DTT) 2 mM, MgCl2 10 mM, EGTA 0.5 mM, Triton X-100 0.01%. The kinase reaction is then initiated by the addition of ATP at a concentration of 1μM. After 2 hours of incubation at RT, the reaction is stopped and the unconsumed ATP depleted by the addition of ADP-Glo™ Reagent according to supplier instructions. After 40 minutes of incubation at RT, the Kinase Detection Reagent is then added to the assay plate according to supplier instructions. After 20 minutes of incubation at RT, the luminescence signal is measured with a luminometer (PerkinElmer Envision or equivalent reader).

[3] = human purified recombinant His-TEV-IRAK1 (194-712), ATP 1 μM, read-out: IRAK1 IC50

IRAK1, sequence (P51617 194-712): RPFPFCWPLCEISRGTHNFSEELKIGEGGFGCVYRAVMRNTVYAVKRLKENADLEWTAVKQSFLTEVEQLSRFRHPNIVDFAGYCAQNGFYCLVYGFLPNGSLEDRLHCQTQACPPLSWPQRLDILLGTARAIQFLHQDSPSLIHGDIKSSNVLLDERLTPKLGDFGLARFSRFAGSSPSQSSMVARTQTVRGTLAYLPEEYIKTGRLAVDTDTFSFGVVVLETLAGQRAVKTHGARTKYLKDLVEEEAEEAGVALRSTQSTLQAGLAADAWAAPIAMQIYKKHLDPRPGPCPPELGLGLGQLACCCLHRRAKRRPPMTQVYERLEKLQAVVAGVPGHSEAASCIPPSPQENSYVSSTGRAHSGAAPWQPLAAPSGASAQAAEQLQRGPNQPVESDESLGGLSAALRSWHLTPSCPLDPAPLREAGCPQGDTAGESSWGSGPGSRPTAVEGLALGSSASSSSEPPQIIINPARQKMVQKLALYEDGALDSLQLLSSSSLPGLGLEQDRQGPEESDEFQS
IRAK4, sequence (Q9NWZ3 whole entry): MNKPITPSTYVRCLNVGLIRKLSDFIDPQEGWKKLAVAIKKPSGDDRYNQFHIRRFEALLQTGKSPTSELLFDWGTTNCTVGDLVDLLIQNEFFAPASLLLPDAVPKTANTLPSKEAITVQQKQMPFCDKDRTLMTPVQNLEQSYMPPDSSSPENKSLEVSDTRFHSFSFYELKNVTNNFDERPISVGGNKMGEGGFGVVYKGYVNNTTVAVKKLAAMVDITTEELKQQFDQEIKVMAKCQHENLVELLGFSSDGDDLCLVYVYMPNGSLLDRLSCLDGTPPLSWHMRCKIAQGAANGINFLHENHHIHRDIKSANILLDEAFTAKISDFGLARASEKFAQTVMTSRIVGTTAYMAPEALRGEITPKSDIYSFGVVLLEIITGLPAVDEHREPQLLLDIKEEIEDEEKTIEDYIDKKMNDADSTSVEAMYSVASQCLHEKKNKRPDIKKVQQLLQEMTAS

IC50 [2, 3] [nM] | Compound | IC50 [1] [nM] | IC50 [2] [nM]
 | 9,10-dihydroxy-17-methyl-4,5,13,16,17,20,26-heptaazatetracyclo[20.3.1.1^2,^5.0^1^5,^1^9]heptacosa-1(25),2(27),3,15,18,22(26),23-heptaene-14,21-dione [Compound 36] | < 100 | 
 | 15-methyl-4,5,11,14,15,18,24-heptaazatetracyclo[18.3.1.1^2,^5.0^13,^1^7]pentacosa-1(23),2(25),3,13,16,20(24),21-heptaene-12,19-dione [Compound 2] | 100 to 1000 | 
 | 17-methyl-4,5,13,16,17,20,26-heptaazatetracyclo[20.3.1.1^2,^5.0^1^5,^1^9]heptacosa-1(25),2(27),3,15,18,22(26),23-heptaene-14,21-dione [Compound 35] | < 100 | 
 | Cn1cc2c(n1)C(=O)NCCCCCCn1cc(cn1)-c1cccc(c1)C(=O)N2 [Compound 1, 16-methyl-4,5,12,15,16,19-hexaazatetracyclo[19.3.1.1^2,^5.0^1^4,^1^8]hexacosa-1(24),2(26),3,14,17,21(25),22-heptaene-13,20-dione] | < 100 | 100 to 1000
 | Cn1cc2c(n1)C(=O)NCCCCCCn1cc(cn1)-c1cccc(n1)C(=O)N2 [Compound 3, 16-methyl-4,5,12,15,16,19,25-heptaazatetracyclo[19.3.1.1^2,^5.0^1^4,^1^8]hexacosa-1(24),2(26),3,14,17,21(25),22-heptaene-13,20-dione] | < 100 | 100 to 1000
 | Cn1cc2c(n1)C(=O)NCCCCn1cc(cn1)-c1cccc(n1)C(=O)N2 [Compound 4, 4-methyl-4,5,10,13,14, 17,23-heptaazatetracyclo[17.3.1.1^2,^5.0^12,^1^6]tetracosa-1(22),2(24),3,12,15,19(23),20-heptaene-11,18-dione] | 1000 to 5000 | 1000 to 5000
< 100 | CN1CCNC(=O)c2nn(C)cc2NC(=O)c2cccc(n2)-c2cnn(c2)CCOC1=O [Compound 5, 10,17-dimethyl-8-oxa-4,5,10,13,16,17,20,26-octaazatetracyclo[20.3.1.1^2,^5.0^1^5,^1^9]heptacosa-1(25),2(27),3,15,18,22(26),23-heptaene-9,14,21-trione] | < 100 | 
> 5000 | O=C1Nc2cn(C3CCOCC3)nc2C(=O)NCCCCCn2cc(cn2)-c2cccc1c2 [Compound 6, 15-(oxan-4-yl)-4,5,11,14,15,18-hexaazatetracyclo[18.3.1.1^2,^5.0^13,^1^7]pentacosa-1(23),2(25),3,13,16,20(24),21-heptaene-12,19-dione] | > 5000 | 
 | Cn1cc2c(n1)C(=O)NCC1CN(CCO1)CCn1cc(cn1)-c1cccc(n1)C(=O)N2 (stereo not drawn) [Compound 7, 18-methyl-11-oxa-4,5,8,14,17,18,21,27-octaazapentacyclo[21.3.1.1^2,^5.1^8,^12.0^1^6,^2^0]nonacosa-1 (26),2(29),3,16,19,23(27),24-heptaene-15,22-dione] | < 100 | 1000 to 5000
> 5000 | Cn1cc2c(n1)C(=O)NCC1CN(CCO1)C(=O)OCCn1cc(cn1)-c1cccc(n1)C(=O)N2 (stereo not drawn) [Compound 8, 20-methyl-8,13-dioxa-4,5,10,16,19,20,23,29-octaazapentacyclo[23.3.1.1^2,^5.1^1^0,^1^4.0^1^8,^22]hentriaconta-1(28),2(31),3,18,21,25(29),26-heptaene-9,17,24-trione] | 100 to 1000 | 
 | Cn1cc2c(n1)C(=O)NCC1CCN(CCn3cc(cn3)-c3cccc(n3)C(=O)N2)C1 (stereo not drawn) [Compound 9, 17-methyl-4,5,8,13,16,17,20,26-octaazapentacyclo[20.3.1.1^2,^5.1^8,^11.0^1^5,^1^9]octacosa-1(25),2(28),3,15,18,22(26),23-heptaene-14,21-dione] | < 100 | 1000 to 5000
 | CN1CCNC(=O)c2nn(C)cc2NC(=O)c2cccc(n2)-c2cnn(c2)CC1 [Compound 10, 8,15-dimethyl-4,5,8,11,14,15,18,24-octaazatetracyclo[18.3.1.1^2,^5.0^13,^1^7]pentacosa-1(23),2(25),3,13,16,20(24),21-heptaene-12,19-dione] | 100 to 1000 | 1000 to 5000
 | CN1CCCNC(=O)c2nn(C)cc2NC(=O)c2cccc(n2)-c2cnn(c2)CC1 [Compound 11, 8,16-dimethyl-4,5,8,12,15,16,19,25-octaazatetracyclo[19.3.1.1^2,^5.0^1^4,^1^8]hexacosa-1(24),2(26),3,14,17,21(25),22-heptaene-13,20-dione] | < 100 | 1000 to 5000
 | O=C1Nc2cn(C3CCOCC3)nc2C(=O)NCCCCCCn2cc(cn2)-c2cccc1n2 [Compound 12, 16-(oxan-4-yl)-4,5,12,15,16,19,25-heptaazatetracyclo[19.3.1.1^2,^5.0^1^4,^1^8]hexacosa-1(24),2(26),3,14,17,21 (25),22-heptaene-13,20-dione] | < 100 | 100 to 1000
 | O=C1Nc2cn(C3CCOCC3)nc2C(=O)NCCSCCCn2cc(cn2)-c2cccc1n2 [Compound 13, 6-(oxan-4-yl)-9-thia-4,5,12,15,16,19,25-heptaazatetracyclo[19.3.1.1^2,^5.0^1^4,^1^8]hexacosa-1(24),2(26),3,14,17,21(25),22-heptaene-13,20-dione] | < 100 | 100 to 1000
 | O=C1Nc2cn(C3CCOCC3)nc2C(=O)NCC[S+]([O-])CCCn2cc(cn2)-c2cccc1n2 (stereo not drawn) [Compound 14, 16-(oxan-4-yl)-9λ^4-thia-4,5,12,15,16,19,25-heptaazatetracyclo[19.3.1.1^2,^5.0^1^4,^1^8]hexacosa-1(24),2(26),3,14,17,21(25),22-heptaene-9,13,20-trione] | < 100 | 100 to 1000
 | O=C1Nc2cn(C3CCOCC3)nc2C(=O)NCCS(=O)(=O)CCCn2cc(cn2)-c2cccc1n2 [Compound 15, 16-(oxan-4-yl)-9λ^6-thia-4,5,12,15,16,19,25-heptaazatetracyclo[19.3.1.1^2,^5.0^1^4,^1^8]hexacosa-1(24),2(26),3,14,17,21(25),22-heptaene-9,9,13,20-tetrone] | < 100 | 100 to 1000
 | O=C1Nc2cn(C3CCNCC3)nc2C(=O)NCCCCCCn2cc(cn2)-c2cccc1n2 [Compound 16, 16-(piperidin-4-yl)-4,5,12,15,16,19,25-heptaazatetracyclo[19.3.1.1^2,^5.0^1^4,^1^8]hexacosa-1 (24),2(26),3,14,17,21(25),22-heptaene-13,20-dione] | < 100 | 100 to 1000
 | CS(=O)(=O)N1CCC(n2cc3c(n2)C(=O)NCCCCCCn2cc(cn2)-c2cccc(n2)C(=O)N3)CC1 [Compound 17, 6-(1-methanesulfonylpiperidin-4-yl)-4,5,12,15,16,19,25-heptaazatetracyclo[19.3.1.1^2,^5.0^1^4,^1^8]hexacosa-1(24),2(26),3,14,17,21(25),22-heptaene-13,20-dione] | < 100 | 100 to 1000
 | O=C1Nc2cn(C3CCN(C(=O)C4CC4(F)F)CC3)nc2C(=O)NCCCCCCn2cc(cn2)-c2cccc1n2 (stereo not drawn) [Compound 18, 16-[1-(2,2-difluorocyclopropanecarbonyl)piperidin-4-yl]-4,5,12,15,16,19,25-heptaazatetracyclo[19.3.1.1^2,^5.0^1^4,^1^8]hexacosa-1(24),2(26),3,14,17,21 (25),22-heptaene-13,20-dione] | < 100 | 100 to 1000
 | O=C1Nc2cn(C3CCN(C(=O)NC4CC4)CC3)nc2C(=O)NCCCCCCn2cc(cn2)-c2cccc1n2 [Compound 19, N-cyclopropyl-4-{13,20-dioxo-4,5,12,15,16,19,25-heptaazatetracyclo[19.3.1.1^2,^5.0^1^4,^1^8]hexacosa-1(24),2(26),3,14,17,21(25),22-heptaen-16-yl}piperidine-1-carboxamide] | < 100 | 100 to 1000
 | Cn1cc2c(n1)C(=O)NC1CCN(CC1O)C(=O)OCCn1cc(cn1)-c1cccc(n1)C(=O)N2 (stereo not drawn) [Compound 21, 26-hydroxy-6-methyl-22-oxa-2,5,6,9,18,19,24,30-octaazapentacyclo[22.2.2.1^11,^1^5.1^1^6,^1^9.0^4,^8]triaconta-4,7,11(30),12,14,16(29),17-heptaene-3,10,23-trione] | 100 to 1000 | 1000 to 5000
 | (9E)-17-methyl-4,5,13,16, 17,20,26-heptaazatetracyclo[20.3.1.1^2,^5.0^1^5,^1^9]heptacosa-1(25),2(27),3,9,15,18,22(26),23-octaene-14,21-dione [Compound 34] | < 100 | 
